Assay results: PubChem BioAssay AID330 (DTP/NCI, 2004)
“And” between values parts separate entries of the source, which are not always exact repeats. Equal entries are not always repeated. Inconclusive results and toxic doses are left out.

System: P388 leukemia ip, CD2F1 mice, survival T/C
Experiment: NCI In Vivo Anticancer Drug Screen. Data for tumor model P388 Leukemia (intraperitoneal) in CD2F1 (CDF1) mice
Settings: endpoint: median survival time, higher = longer survival
Procedure, shortened: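 Mice carrying the transplanted tumor received test compound or vehicle. Survival was recorded in each group, and the value is the treated-group measurement divided by that of the vehicle-treated control group.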

[1] = dose: 25.0 mg/kg/injection, schedule: Q01DX009 (ip), vehicle: saline
[2] = dose: 50.0 mg/kg/injection, schedule: Q01DX009 (ip), vehicle: saline
[3] = dose: 50.0 mg/kg/injection, schedule: Q01DX009 (ip), vehicle: saline with Tween-80
[4] = dose: 25.0 mg/kg/injection, schedule: Q01DX009 (ip), vehicle: Klucel (hydroxypropylcellulose) (HPC)
[5] = dose: 50.0 mg/kg/injection, schedule: Q01DX009 (ip), vehicle: Klucel (hydroxypropylcellulose) (HPC)
[6] = dose: 100.0 mg/kg/injection, schedule: Q01DX009 (ip), vehicle: Klucel (hydroxypropylcellulose) (HPC)
[7] = dose: 100.0 mg/kg/injection, schedule: Q01DX009 (ip), vehicle: saline with Tween-80
[8] = dose: 200.0 mg/kg/injection, schedule: Q01DX009 (ip), vehicle: Klucel (hydroxypropylcellulose) (HPC)
[9] = dose: 200.0 mg/kg/injection, schedule: Q01DX009 (ip), vehicle: saline with Tween-80
[10] = dose: 50.0 mg/kg/injection, schedule: Q01DX005 (ip), vehicle: saline with Tween-80
[11] = dose: 100.0 mg/kg/injection, schedule: Q01DX005 (ip), vehicle: saline with Tween-80
[12] = dose: 200.0 mg/kg/injection, schedule: Q01DX005 (ip), vehicle: saline with Tween-80
[13] = dose: 100.0 mg/kg/injection, schedule: Q01DX001 (ip), vehicle: saline with Tween-80
[14] = dose: 200.0 mg/kg/injection, schedule: Q01DX001 (ip), vehicle: saline with Tween-80
[15] = dose: 60.0 mg/kg/injection, schedule: Q01DX005 (ip), vehicle: Klucel (hydroxypropylcellulose) (HPC)
[16] = dose: 120.0 mg/kg/injection, schedule: Q01DX005 (ip), vehicle: Klucel (hydroxypropylcellulose) (HPC)
[17] = dose: 240.0 mg/kg/injection, schedule: Q01DX005 (ip), vehicle: Klucel (hydroxypropylcellulose) (HPC)
[18] = dose: 50.0 mg/kg/injection, schedule: Q01DX005 (ip), vehicle: saline
[19] = dose: 100.0 mg/kg/injection, schedule: Q01DX005 (ip), vehicle: saline
[20] = dose: 200.0 mg/kg/injection, schedule: Q01DX005 (ip), vehicle: saline
[21] = dose: 50.0 mg/kg/injection, schedule: Q01DX005 (ip), vehicle: Klucel (hydroxypropylcellulose) (HPC)
[22] = dose: 100.0 mg/kg/injection, schedule: Q01DX005 (ip), vehicle: Klucel (hydroxypropylcellulose) (HPC)
[23] = dose: 200.0 mg/kg/injection, schedule: Q01DX005 (ip), vehicle: Klucel (hydroxypropylcellulose) (HPC)

Compound: CN1[C@@H](CC(=O)c2ccccc2)CCC[C@H]1CC(=O)c1ccccc1
- T/C [1]: 95 % of control
- T/C [2]: 103 % of control
- T/C (dose: 100.0 mg/kg/injection, schedule: Q01DX009 (ip), vehicle: saline): 102 % of control

Compound: Oc1ccccc1O
- T/C (dose: 3.12 mg/kg/injection, schedule: Q01DX009 (ip), vehicle: saline): 112 % of control
- T/C (dose: 6.25 mg/kg/injection, schedule: Q01DX009 (ip), vehicle: saline): 104 % of control
- T/C (dose: 12.5 mg/kg/injection, schedule: Q01DX009 (ip), vehicle: saline): 105 % of control
- T/C [1]: 105 % of control
- T/C [2]: 105 % of control and 106 % of control and 107 % of control

Compound: COc1cccc2c1C(=O)c1c(O)c3c(c(O)c1C2=O)CC(O)(C(O)CO)CC3OC1CC(N2CCCCC2)C(O)C(C)O1 (configuration not stated)
- T/C (dose: 0.39 mg/kg/injection, schedule: Q01DX009 (ip), vehicle: water): 115 % of control
- T/C (dose: 1.56 mg/kg/injection, schedule: Q01DX009 (ip), vehicle: water): 153 % of control and 157 % of control
- T/C (dose: 2.4 mg/kg/injection, schedule: Q04DX003 (ip), vehicle: water): 100 % of control
- T/C (dose: 4.7 mg/kg/injection, schedule: Q04DX003 (ip), vehicle: water): 106 % of control
- T/C (dose: 9.4 mg/kg/injection, schedule: Q04DX003 (ip), vehicle: water): 114 % of control and 124 % of control
- T/C (dose: 18.8 mg/kg/injection, schedule: Q04DX003 (ip), vehicle: water): 124 % of control
- T/C (dose: 75.0 mg/kg/injection, schedule: Q04DX003 (ip), vehicle: water): 101 % of control

Compound: Nc1ccc2nc3cc4c5ccccc5c(=O)c5cccc(c54)n3c(=O)c2c1
- T/C (dose: 50.0 mg/kg/injection, schedule: Q01DX005 (ip), vehicle: Klucel + Tween-80): 104 % of control

Compound: CN(C)C1CCc2[nH]c3c(F)cc(F)cc3c2C1 (configuration not stated)
- T/C [3]: 102 % of control

Compound: Cl/N=N/c1nc(-c2ccccc2)[nH]c1-c1ccccc1
- T/C (dose: 50.0 mg/kg/injection, schedule: Q01DX001 (ip), vehicle: suspension in saline): 109 % of control
- T/C (dose: 100.0 mg/kg/injection, schedule: Q01DX001 (ip), vehicle: suspension in saline): 101 % of control
- T/C (dose: 200.0 mg/kg/injection, schedule: Q01DX001 (ip), vehicle: suspension in saline): 99 % of control

Compound: O=C(O)CCC(=O)C1=CSC(=C2SC=CS2)S1
- T/C (dose: 60.0 mg/kg/injection, schedule: Q01DX005 (ip), vehicle: Klucel + Tween-80): 106 % of control

Compound: O=C(Nc1nccs1)Nc1ccccc1C(F)(F)F
- T/C [4]: 115 % of control
- T/C [5]: 108 % of control
- T/C [6]: 106 % of control
- T/C [7]: 92 % of control
- T/C [8]: 111 % of control
- T/C [9]: 90 % of control
- T/C (dose: 400.0 mg/kg/injection, schedule: Q01DX009 (ip), vehicle: saline with Tween-80): 88 % of control

Compound: C(=C\c1cc2cc(C3=NCCN3)ccc2o1)/c1cc2cc(C3=NCCN3)ccc2o1
- T/C (dose: 25.0 mg/kg/injection, schedule: Q04DX003 (ip), vehicle: suspension in saline): 154 % of control
- T/C (dose: 50.0 mg/kg/injection, schedule: Q04DX003 (ip), vehicle: suspension in saline): 152 % of control
- T/C (dose: 100.0 mg/kg/injection, schedule: Q04DX003 (ip), vehicle: suspension in saline): 101 % of control

Compound: CCOC(=O)CC1CC(C)(C(=O)OCC)C(=O)CC1=O (configuration not stated)
- T/C [10]: 102 % of control
- T/C [11]: 104 % of control
- T/C [12]: 95 % of control

Compound: CC(=O)OCc1cc(-c2nc3ccccc3[nH]c2=O)nn1-c1ccc(Cl)cc1
- T/C (dose: 25.0 mg/kg/injection, schedule: Q01DX005 (ip), vehicle: distilled water + alcohol): 93 % of control
- T/C (dose: 50.0 mg/kg/injection, schedule: Q01DX005 (ip), vehicle: distilled water + alcohol): 90 % of control
- T/C (dose: 100.0 mg/kg/injection, schedule: Q01DX005 (ip), vehicle: distilled water + alcohol): 86 % of control
- T/C (dose: 200.0 mg/kg/injection, schedule: Q01DX005 (ip), vehicle: distilled water + alcohol): 87 % of control

Compound: Cc1ccccc1N1C(=O)OC(C)C1=O (configuration not stated)
- T/C [13]: 97 % of control
- T/C [14]: 109 % of control
- T/C (dose: 400.0 mg/kg/injection, schedule: Q01DX001 (ip), vehicle: saline with Tween-80): 94 % of control

Compound: COc1ccc(-n2c(O)c(N=Nc3nc4ccc([N+](=O)[O-])cc4s3)c(=O)n(-c3ccccc3)c2=S)cc1
- T/C [15]: 103 % of control
- T/C [16]: 100 % of control
- T/C [17]: 91 % of control

Compound: C/C(=N\O)c1ccc2c3c(ccc([N+](=O)[O-])c13)CC2
- T/C (dose: 6.25 mg/kg/injection, schedule: Q01DX009 (ip), vehicle: suspension in saline): 97 % of control
- T/C (dose: 12.5 mg/kg/injection, schedule: Q01DX009 (ip), vehicle: suspension in saline): 98 % of control
- T/C (dose: 25.0 mg/kg/injection, schedule: Q01DX009 (ip), vehicle: suspension in saline): 97 % of control
- T/C (dose: 50.0 mg/kg/injection, schedule: Q01DX009 (ip), vehicle: suspension in saline): 96 % of control

Compound: CCN(CC)CCCC(=O)O
- T/C [18]: 100 % of control
- T/C [19]: 100 % of control
- T/C [20]: 100 % of control

Compound: Cc1ccc(S(=O)(=O)OC2CCN(C(=O)OCc3ccccc3)CC2)cc1
- T/C [3]: 95 % of control
- T/C [7]: 98 % of control
- T/C [9]: 98 % of control

Compound: CN1CCCC1=O
- T/C [2]: 95 % of control

Compound: O=C(c1ccncc1)N(CO)N(Cn1c(=O)sc2ccccc21)Cn1c(=O)sc2ccccc21
- T/C (dose: 6.25 mg/kg/injection, schedule: Q01DX009 (ip), vehicle: Klucel (hydroxypropylcellulose) (HPC)): 101 % of control
- T/C (dose: 12.5 mg/kg/injection, schedule: Q01DX009 (ip), vehicle: Klucel (hydroxypropylcellulose) (HPC)): 94 % of control
- T/C [4]: 92 % of control

Compound: Cn1c2ccc(Cl)cc2c2oc(-c3nn[nH]n3)cc(=O)c21
- T/C [10]: 102 % of control
- T/C [11]: 107 % of control
- T/C [12]: 97 % of control

Compound: O=C(O)c1cc2ccccc2[nH]c1=O
- T/C [21]: 97 % of control
- T/C [22]: 97 % of control
- T/C [23]: 104 % of control

Compound: CC1CCCC(C)N1C(=O)OCC12COC3(C)CCC(C)(OC1)N23 (configuration not stated)
- T/C (dose: 25.0 mg/kg/injection, schedule: Q01DX005 (ip), vehicle: saline): 100 % of control
- T/C [21]: 95 % of control
- T/C [18]: 99 % of control and 100 % of control
- T/C [22]: 109 % of control
- T/C [19]: 104 % of control and 108 % of control
- T/C [23]: 109 % of control
- T/C [20]: 122 % of control and 96 % of control

Compound: CC(=O)OC(CCl)C1OC(CCl)C(OC(C)=O)O1 (configuration not stated)
- T/C [3]: 103 % of control
- T/C [7]: 103 % of control
- T/C [9]: 102 % of control

Compound: Cc1ccc(S(=O)(=O)NC(=O)C2C(=O)CC3(CCCCC3)CC2=O)cc1
- T/C [5]: 117 % of control
- T/C [6]: 123 % of control
- T/C [8]: 124 % of control

Compound: CC(=O)Nc1ccc(Nc2nc(Cl)nc(Nc3ccc(NC(C)=O)cc3)n2)cc1
- T/C (dose: 30.0 mg/kg/injection, schedule: Q01DX005 (ip), vehicle: Klucel (hydroxypropylcellulose) (HPC)): 100 % of control
- T/C [15]: 89 % of control and 97 % of control
- T/C [16]: 93 % of control
- T/C [17]: 89 % of control

Compound: COc1ccc2c(c1)CCC1(C)C2=CC(=O)/C1=C\[O-].COc1ccc2c(c1)CCC1(C)C2=CC(=O)/C1=C\[O-].[Cu+2] (configuration not stated)
- T/C (dose: 25.0 mg/kg/injection, schedule: Q04DX003 (ip), vehicle: saline with Tween-80): 90 % of control
- T/C (dose: 50.0 mg/kg/injection, schedule: Q04DX003 (ip), vehicle: saline with Tween-80): 90 % of control
- T/C (dose: 100.0 mg/kg/injection, schedule: Q04DX003 (ip), vehicle: saline with Tween-80): 86 % of control

Compound: COc1cc(/C(C)=C\CP(=O)(c2ccccc2)c2ccccc2)c(C(=O)O)cc1C
- T/C [10]: 106 % of control
- T/C [11]: 106 % of control
- T/C [12]: 103 % of control

Compound: Cc1ccc(CCNC(=O)c2c3nc4c(C(=O)NCCc5ccc(C)cc5)ccc(Br)c4oc-3c(Br)c(=O)c2N)cc1
- T/C [10]: 93 % of control
- T/C [11]: 86 % of control
- T/C [12]: 106 % of control

Compound: S=c1cc(-c2ccccc2)c(-c2ccccc2)c(-c2ccccc2)s1
- T/C [13]: 91 % of control
- T/C [14]: 94 % of control
